What was measured:
Assay in all cases: Test E preemergence
morningglory = assay type: in vivo, Ipomoea coccinea; conditions: for Morningglory plant response rating: scale 0 to 100 (0 no effect, 100 complete control); for Plant response rating, Morningglory: scale 0 to 100, 0 no effect, 100 complete control
From the text: (§1) Seeds of plant species selected from corn (Zea mays), soybean (Glycine max), velvetleaf (Abutilon theophrasti), lambsquarters (Chenopodium album), wild poinsettia (Euphorbia heterophylla), palmer pigweed (Amaranthus palmeri), waterhemp (common waterhemp, Amaranthus rudis), surinam grass (Brachiaria decumbens), large (Lg) crabgrass (Digitaria sanguinalis), Brazilian crabgrass (Digitaria horizontalis), fall panicum (Panicum dichotomiflorum), giant foxtail (Setaria faberii), green foxtail (Setaria viridis), goosegrass (Eleusine indica), johnsongrass (Sorghum halepense), ragweed (common ragweed, Ambrosia elatior), barnyardgrass (Echinochloa crus-galli), sandbur (southern sandbur, Cenchrus echinatus), arrowleaf sida (Sida rhombifolia), Italian ryegrass (Lolium multiflorum), dayflower (Virginia (VA) dayflower, Commelina virginica), field bindweed (Convolvulus arvensis), morningglory (Ipomoea coccinea), nightshade (eastern black nightshade, Solanum ptycanthum), kochia (Kochia scoparia), yellow nutsedge (Cyperus esculentus), cocklebur (common cocklebur, Xanthium strumarium), smartweed (ladysthumb smartweed, and hairy beggarticks (Bidens pilosa), were planted into a silt loam soil and treated preemergence with test chemicals formulated in a non-phytotoxic solvent mixture which included a surfactant.
(§2) At the same time, plants from these crop and weed species and also horseweed (Canada horseweed, Conyza canadensis), waterhemp_RES1, (ALS & Triazine resistant common waterhemp, Amaranthus rudis), and waterhemp_RES2, (ALS & HPPD resistant common waterhemp, Amaranthus rudis) were planted in pots containing Redi-Earth® planting medium (Scotts Company, 14111 Scottslawn Road, Marysville, Ohio 43041) comprising spaghnum peat moss, vermiculite, wetting agent and starter nutrients were treated with postemergence applications of test chemicals formulated in the same manner. Plants ranged in height from 2 to 18 cm for postemergence treatments (1- to 4-leaf stage). Treated plants and controls were maintained in a greenhouse for 14 to 21 days, after which time all species were compared to controls and visually evaluated. Plant response ratings, summarized in Table E, are based on a scale of 0 to 100 where 0 is no effect and 100 is complete control. A dash (-) response means no test result.

waterhemp = assay type: in vivo, Amaranthus rudis; conditions: for Waterhemp plant response rating: scale 0 to 100 (0 no effect, 100 complete control); for Plant response rating, Waterhemp: scale 0 to 100, 0 no effect, 100 complete control
From the text: as §1, §2

giant foxtail = assay type: in vivo, Setaria faberii; conditions: for Foxtail, Giant plant response rating: scale 0 to 100 (0 no effect, 100 complete control); for Plant response rating, Foxtail, Giant: scale 0 to 100, 0 no effect, 100 complete control
From the text: as §1, §2

palmer pigweed = assay type: in vivo, Amaranthus palmeri; conditions: for Pigweed, Palmer plant response rating: scale 0 to 100 (0 no effect, 100 complete control); for Plant response rating, Pigweed, Palmer: scale 0 to 100, 0 no effect, 100 complete control
From the text: as §1, §2

soybean = assay type: in vivo, Glycine max; conditions: for Soybean plant response rating: scale 0 to 100 (0 no effect, 100 complete control); for Plant response rating, Soybean: scale 0 to 100, 0 no effect, 100 complete control
From the text: as §1, §2

Brazilian crabgrass = assay type: in vivo, Digitaria horizontalis; conditions: for Crabgrass, Brazil plant response rating: scale 0 to 100 (0 no effect, 100 complete control); for Plant response rating, Crabgrass, Brazil: scale 0 to 100, 0 no effect, 100 complete control
From the text: as §1, §2

ragweed = assay type: in vivo, Ambrosia elatior; conditions: for Ragweed plant response rating: scale 0 to 100 (0 no effect, 100 complete control); for Plant response rating, Ragweed: scale 0 to 100, 0 no effect, 100 complete control
From the text: as §1, §2

dayflower = assay type: in vivo, Commelina virginica; conditions: for Dayflower, VA plant response rating: scale 0 to 100 (0 no effect, 100 complete control); for Plant response rating, Dayflower, VA: scale 0 to 100, 0 no effect, 100 complete control
From the text: as §1, §2

Italian ryegrass = assay type: in vivo, Lolium multiflorum; conditions: for Ryegrass, Italian plant response rating: scale 0 to 100 (0 no effect, 100 complete control); for Plant response rating, Ryegrass, Italian: scale 0 to 100, 0 no effect, 100 complete control
From the text: as §1, §2

wild poinsettia = assay type: in vivo, Euphorbia heterophylla; conditions: for Poinsettia, Wild plant response rating: scale 0 to 100 (0 no effect, 100 complete control); for Plant response rating, Poinsettia, Wild: scale 0 to 100, 0 no effect, 100 complete control
From the text: as §1, §2

velvetleaf = assay type: in vivo, Abutilon theophrasti; conditions: for Velvetleaf plant response rating: scale 0 to 100 (0 no effect, 100 complete control); for Plant response rating, Velvetleaf: scale 0 to 100, 0 no effect, 100 complete control
From the text: as §1, §2

sandbur = assay type: in vivo, Cenchrus echinatus; conditions: for Sandbur plant response rating: scale 0 to 100 (0 no effect, 100 complete control); for Plant response rating, Sandbur: scale 0 to 100, 0 no effect, 100 complete control
From the text: as §1, §2

SMILES: Cc1cnc(Oc2cccc(C#N)c2-n2cc(C(F)(F)F)cn2)nc1 [Compound 180]
- Morningglory plant response rating (morningglory; 31 g ai/ha): 0
- Morningglory plant response rating (morningglory; 62 g ai/ha): 15
- Plant response rating, Morningglory (morningglory; 125 g ai/ha): 60
- Plant response rating, Morningglory (morningglory; 250 g ai/ha): 100
- Waterhemp plant response rating (waterhemp; 31 g ai/ha): 98
- Waterhemp plant response rating (waterhemp; 62 g ai/ha): 98
- Plant response rating, Waterhemp (waterhemp; 125 g ai/ha): 100
- Plant response rating, Waterhemp (waterhemp; 250 g ai/ha): 100
- Foxtail, Giant plant response rating (giant foxtail; 31 g ai/ha): 75
- Foxtail, Giant plant response rating (giant foxtail; 62 g ai/ha): 100
- Plant response rating, Foxtail, Giant (giant foxtail; 125 g ai/ha): 100
- Plant response rating, Foxtail, Giant (giant foxtail; 250 g ai/ha): 100
- Pigweed, Palmer plant response rating (palmer pigweed; 31 g ai/ha): 0
- Pigweed, Palmer plant response rating (palmer pigweed; 62 g ai/ha): 0
- Plant response rating, Pigweed, Palmer (palmer pigweed; 125 g ai/ha): 75
- Plant response rating, Pigweed, Palmer (palmer pigweed; 250 g ai/ha): 90
- Soybean plant response rating (soybean; 31 g ai/ha): 35
- Soybean plant response rating (soybean; 62 g ai/ha): 70
- Plant response rating, Soybean (soybean; 125 g ai/ha): 90
- Plant response rating, Soybean (soybean; 250 g ai/ha): 98
- Crabgrass, Brazil plant response rating (Brazilian crabgrass; 31 g ai/ha): 90
- Crabgrass, Brazil plant response rating (Brazilian crabgrass; 62 g ai/ha): 100
- Plant response rating, Crabgrass, Brazil (Brazilian crabgrass; 125 g ai/ha): 100
- Plant response rating, Crabgrass, Brazil (Brazilian crabgrass; 250 g ai/ha): 100
- Ragweed plant response rating (ragweed; 31 g ai/ha): 70
- Ragweed plant response rating (ragweed; 62 g ai/ha): 90
- Plant response rating, Ragweed (ragweed; 125 g ai/ha): 100
- Plant response rating, Ragweed (ragweed; 250 g ai/ha): 100
- Dayflower, VA plant response rating (dayflower; 31 g ai/ha): 0
- Dayflower, VA plant response rating (dayflower; 62 g ai/ha): 35
- Plant response rating, Dayflower, VA (dayflower; 125 g ai/ha): 85
- Plant response rating, Dayflower, VA (dayflower; 250 g ai/ha): 90
- Ryegrass, Italian plant response rating (Italian ryegrass; 31 g ai/ha): 0
- Ryegrass, Italian plant response rating (Italian ryegrass; 62 g ai/ha): 0
- Plant response rating, Ryegrass, Italian (Italian ryegrass; 125 g ai/ha): 30
- Plant response rating, Ryegrass, Italian (Italian ryegrass; 250 g ai/ha): 70
- Poinsettia, Wild plant response rating (wild poinsettia; 31 g ai/ha): 10
- Poinsettia, Wild plant response rating (wild poinsettia; 62 g ai/ha): 15
- Plant response rating, Poinsettia, Wild (wild poinsettia; 125 g ai/ha): 65
- Plant response rating, Poinsettia, Wild (wild poinsettia; 250 g ai/ha): 98
- Velvetleaf plant response rating (velvetleaf; 31 g ai/ha): 35
- Velvetleaf plant response rating (velvetleaf; 62 g ai/ha): 80
- Plant response rating, Velvetleaf (velvetleaf; 125 g ai/ha): 100
- Plant response rating, Velvetleaf (velvetleaf; 250 g ai/ha): 100
- Sandbur plant response rating (sandbur; 31 g ai/ha): 0
- Sandbur plant response rating (sandbur; 62 g ai/ha): 20
- Plant response rating, Sandbur (sandbur; 125 g ai/ha): 75
- Plant response rating, Sandbur (sandbur; 250 g ai/ha): 90
